Source: BigSolDB 2.1

O=C(NC[C@H]1CN(c2ccc(N3CCOCC3=O)cc2)C(=O)O1)c1ccc(Cl)s1
solubility (mole fraction)
Conditions | in 1,4-dioxane | in 2-butanone | in 2-hexanone | in 3-pentanone | in acetone | in acetonitrile | in methyl acetate
273.15 K | – | 3.47e-05 | 1.78e-05 | 2.43e-05 | 4.06e-05 | 4.82e-05 | 3.2e-05
278.15 K | – | 4.55e-05 | 2.24e-05 | 3.11e-05 | 5.29e-05 | 6.11e-05 | 4.05e-05
283.15 K | – | 5.9e-05 | 2.79e-05 | 3.94e-05 | 6.83e-05 | 7.68e-05 | 5.07e-05
288.15 K | 0.000132 | 7.59e-05 | 3.45e-05 | 4.95e-05 | 8.74e-05 | 9.58e-05 | 6.31e-05
293.15 K | 0.000158 | 9.67e-05 | 4.24e-05 | 6.17e-05 | 0.000111 | 0.000119 | 7.79e-05
298.15 K | 0.000189 | 0.000122 | 5.17e-05 | 7.64e-05 | 0.00014 | 0.000146 | 9.54e-05
303.15 K | 0.000224 | 0.000153 | 6.27e-05 | 9.39e-05 | 0.000175 | 0.000178 | 0.000116
308.15 K | 0.000265 | 0.000191 | 7.54e-05 | 0.000115 | 0.000216 | 0.000216 | 0.000141
313.15 K | 0.000311 | 0.000236 | 9.03e-05 | 0.000139 | 0.000267 | 0.00026 | 0.000169
318.15 K | 0.000363 | 0.00029 | 0.000107 | 0.000168 | 0.000326 | 0.000312 | 0.000202
323.15 K | 0.000422 | – | – | – | – | – | –
328.15 K | 0.000488 | – | – | – | – | – | –
333.15 K | 0.000562 | – | – | – | – | – | –
